These results are taken from patent US9073902B2 (BioEnergenix, LLC, priority 2011, dated 2015).

In general, IC50 refers to the concentration that gives 50% inhibition.

The target in the experiment is T1, hPASK (Homo sapiens, UniProt Q96RG2).
T1 construct: IC50 Kinase Domain; purchased Invitrogen
T1 sequence (Q96RG2 999-1251 limits assumed): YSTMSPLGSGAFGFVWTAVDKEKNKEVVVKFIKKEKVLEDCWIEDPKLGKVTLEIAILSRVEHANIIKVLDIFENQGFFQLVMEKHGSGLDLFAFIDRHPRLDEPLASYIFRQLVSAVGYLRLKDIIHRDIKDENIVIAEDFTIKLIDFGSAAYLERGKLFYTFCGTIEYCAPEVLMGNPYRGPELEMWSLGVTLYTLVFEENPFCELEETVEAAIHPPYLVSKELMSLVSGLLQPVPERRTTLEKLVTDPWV
In words: PAS Kinase FRET Assay (Biochemical Assay for hPASK Activity). The conditions noted are these: TR-FRET (665 nm/615 nm), 2 hours at 25° C.; read-out: IC50 Kinase Domain. From the text: Biochemical Assay for hPASK Activity
The aim of the FRET assay is to determine the inhibition potential of test compounds on targeted kinase. This assay platform provides a homogenous screening method for measuring kinase activity by quantitating the amount of phospho-substrate in solution following a kinase reaction.
In the presence of kinase and ATP, the Ulight-peptide is phosphorylated and captured by an anti-phospho-substrate antibody, which brings the Eu chelate donor and Ulight acceptor dyes into close proximity. Upon excitation at 340 nm, the Eu chelate transfers its energy to the Ulight dye, resulting in a fluorescent light emission at 665 nm.
Titration of kinase at 1 mM ATP was achieved via the following protocol. After making serial three-fold dilutions of PASK (Invitrogen) in reaction buffer across the plate; 5 μl of kinase dilution and 5 μl substrate/ATP mix were added to the wells of the white Optiplate-384 (PerkinElmer). The contents of the plate were and incubated at RT for 1 h. The reaction was stopped by adding 5 μl of stop solution to each test well followed by mixing and incubation at RT for 10 minutes. 5 μl of detection mix (detection antibody diluted in detection buffer) was added; the contents of the plate were mixed and then incubated in the dark for 1 hour at RT. The signal was recorded at TR-FRET mode (665 nm/615 nm). The results were graphed to calculate the EC50.
Titration of ATP at the EC50 concentration of kinase to determine ATP Km, app. was performed using the following method. After making serial dilutions of ATP (Invitrogen), 5 μl of ATP dilution and 5 μl substrate/kinase mix were added to the wells of the white Optiplate-384 (PerkinElmer). The contents of the plate were and incubated at RT for 1 h. The reaction was stopped by adding 5 μl of stop solution to each test well followed by mixing and incubation at RT for 10 minutes. 5 μl of detection mix (detection antibody diluted in detection buffer) was added; the contents of the plate were mixed and then incubated in the dark for 1 hour at RT. The signal was recorded at TR-FRET mode (665 nm/615 nm). The results were graphed to calculate the EC50 as the ATP Km,app.
Compound screening was done via the following method. 10 mM stock solution of test compound in DMSO was prepared by dissolving test compound in DMSO at RT for 1 hour, and then sonicating at 100% output for 8 minutes. If compound is not soluble under this condition, it was diluted to 3 mM. Kinase reaction buffer was prepared containing 10 mM MgCl2, 50 mM HEPES, 1 mM EGTA, 0.01% TWEEN-20, 2 mM DTT. Serial dilutions of the test compounds were prepared at 4× final assay concentrations using Freedom EVO200® dispensing system as follows: 12×10^−5 M, 4×10^−5M, 1.33×10^−5M, 4.44×10^−6M, 1.48×10^−6M, 4.92×10^−7M, 1.65×10^−7M, 5.48×10^−7 M, 1.82×10^−8 M, 6.09×10^−9, 2.03×10^−9 M. Test compounds (2.5 μl at 4× the final assay concentration) was added to wells using Freedom EVO200® dispensing system. As a positive control, 2.5 μl of positive compound was added to assay wells, and 2.5 μl of DMSO to assay wells as vehicle control. Kinase solution was prepared in reaction buffer at 2× final assay concentration. Kinase solution (5 μl) was added to each well of the assay plate. The substrate and ATP solution was prepared in kinase reaction buffer at 4× final assay concentration. The kinase reaction was started by adding 2.5 μl of substrate+ATP mix solution to each well of the assay plate. The plate is mixed on a plate shaker; then covered and allowed to react for 2 hours in the dark at 25° C. without shaking. The reaction was stopped by adding 5 μl of stop solution to each test well followed by mixing and incubation at RT for 10 minutes in the dark. 5 μl of detection mix (detection antibody diluted in detection buffer) was added; the contents of the plate were mixed and then incubated in the dark for 1 hour at RT. The signal was recorded at TR-FRET mode (665 nm/615 nm).
In the case of `Cc1cc2cc(-c3nc4ccc(C(=O)O)cc4nc3N3CCCc4cc(F)ccc43)ccc2[nH]1` [Example 20, 3-(6-Fluoro-1,2,3,4-tetrahydroquinolin-1-yl)-2-(2-methyl-1H-indol-5-yl)quinoxaline-6-carboxylic acid], the IC50 was not above 10 µM. For `O=C(O)c1ccc2nc(-c3ccc(F)cc3)c(N3CCCc4ccc(F)cc43)nc2c1` [Example 23, 3-(7-Fluoro-1,2,3,4-tetrahydroquinolin-1-yl)-2-(4-fluorophenyl)quinoxaline-6-carboxylic acid] the value was not above 10 µM; for `O=C(O)c1ccc2[nH]c(=O)c(N3CCCc4ccccc43)nc2c1` [Example 10, 2-Oxo-3-(1,2,3,4-tetrahydroquinolin-1-yl)-1,2-dihydroquinoxaline-6-carboxylic acid], more than 10 µM. Next, `COc1ccc2c(c1)N(c1nc3cc(C(=O)O)ccc3nc1-c1ccc(F)cc1)CCC2` [Example 22, 2-(4-Fluorophenyl)-3-(7-methoxy-1,2,3,4-tetrahydroquinolin-1-yl)quinoxaline-6-carboxylic acid]: not above 10 µM. Next, `COc1ccc2c(c1)CCCN2c1nc2cc(C(=O)O)ccc2nc1-c1cc2cc(Cl)ccc2o1` [Example 9, 2-(5-Chloro-1-benzofuran-2-yl)-3-(6-methoxy-1,2,3,4-tetrahydroquinolin-1-yl)quinoxaline-6-carboxylic acid]: not above 10 µM; `O=C(O)c1ccc2nc(-c3ccc4[nH]ncc4c3)c(N3CCCc4cc(F)ccc43)nc2c1` [Example 21, 3-(6-Fluoro-1,2,3,4-tetrahydroquinolin-1-yl)-2-(1H-indazol-5-yl)quinoxaline-6-carboxylic acid]: not above 10 µM. On to `O=C(O)c1ccc2nc(-c3cc4cc(F)ccc4o3)c(N3CCCc4ccccc43)nc2c1` [Example 3, 3-(1,2,3,4-Tetrahydroquinolin-1(2H)-yl)-2-(5-fluorobenzofuran-2-yl)quinoxaline-6-carboxylic acid], for which the IC50 is not above 10 µM. For `O=C(O)c1ccc2nc(-c3ccc(F)cc3)c(N3CCCc4cc(Br)ccc43)nc2c1` [Example 13] the value was not above 10 µM; for `N#Cc1ccc2c(c1)CCCN2c1nc2cc(C(=O)O)ccc2nc1-c1ccc(F)cc1` [Example 12, 3-(6-Cyano-1,2,3,4-tetrahydroquinolin-1-yl)-2-(4-fluorophenyl)quinoxaline-6-carboxylic acid], not above 10 µM.

Turning to `O=C(O)c1ccc2nc(-c3ccc(F)cc3)c(N3CCCc4c(F)cccc43)nc2c1` [Example 19], the IC50 was not above 10 µM. On to `CN(C)c1ccc2c(c1)CCCN2c1nc2cc(C(=O)O)ccc2nc1-c1ccc(F)cc1` [Example 17, 3-[6-(Dimethylamino)-1,2,3,4-tetrahydroquinolin-1-yl]-2-(4-fluorophenyl)quinoxaline-6-carboxylic acid], for which the IC50 is not above 10 µM. Next, `O=C(O)c1ccc2nc(-c3cc4ccccc4o3)c(N3CCCc4ccccc43)nc2c1` [Example 2, 2-(Benzofuran-2-yl)-3-(1,2,3,4-tetrahydroquinolin-1(2H)-yl)quinoxaline-6-carboxylic acid]: not above 10 µM; `COc1ccc2c(c1)CCCN2c1nc2cc(C(=O)O)ccc2nc1-c1cc2cc(F)ccc2o1` [Example 7, 2-(5-Fluoro-1-benzofuran-2-yl)-3-(6-methoxy-1,2,3,4-tetrahydroquinolin-1-yl)quinoxaline-6-carboxylic acid]: not above 10 µM; `O=C(O)c1ccc2nc(-c3ccc(F)cc3)c(N3CCCc4ccccc43)nc2c1` [Example 1, 3-(1,2,3,4-Tetrahydroquinolin-1(2H)-yl)-2-(4-fluorophenyl)quinoxaline-6-carboxylic acid]: not above 10 µM. Next, `COc1ccc2c(c1)CCCN2c1nc2cc(C(=O)O)ccc2nc1-c1ccc(F)cc1` [Example 5, 2-(4-Fluorophenyl)-3-(6-methoxy-1,2,3,4-tetrahydroquinolin-1-yl)quinoxaline-6-carboxylic acid]: not above 10 µM; `O=C(O)c1ccc2nc(-c3cc4cc(Cl)ccc4o3)c(N3CCCc4cc(F)ccc43)nc2c1` [Example 8, 2-(5-Chloro-1-benzofuran-2-yl)-3-(6-fluoro-1,2,3,4-tetrahydroquinolin-1-yl)quinoxaline-6-carboxylic acid]: not above 10 µM.

`O=C(O)c1ccc2nc(-c3ccc(F)cc3)c(N3CCCc4cc(Cl)ccc43)nc2c1` [Example 18, 3-(6-Chloro-1,2,3,4-tetrahydroquinolin-1-yl)-2-(4-fluorophenyl)quinoxaline-6-carboxylic acid]: the IC50 was not above 10 µM.

Take `CN(C)S(=O)(=O)c1ccc2c(c1)CCCN2c1nc2cc(C(=O)O)ccc2nc1-c1ccc(F)cc1` [Example 16, 3-[6-(Dimethylsulfamoyl)-1,2,3,4-tetrahydroquinolin-1-yl]-2-(4-fluorophenyl)quinoxaline-6-carboxylic acid]: the IC50 was not above 10 µM. As for `O=C(O)c1ccc2nc(-c3ccc(F)cc3)c(N3CCCc4cc(F)ccc43)nc2c1` [Example 6, 3-(6-Fluoro-1,2,3,4-tetrahydroquinolin-1-yl)-2-(4-fluorophenyl)quinoxaline-6-carboxylic acid], the IC50 was not above 10 µM. For `O=C(O)c1ccc2nc(-c3ccc4c(c3)OCCO4)c(N3CCCc4ccccc43)nc2c1` [Example 4, 2-(2,3-Dihydro-1,4-benzodioxin-6-yl)-3-(1,2,3,4-tetrahydroquinolin-1-yl)quinoxaline-6-carboxylic acid] the value was not above 10 µM. For `O=C(O)c1ccc2nc(-c3ccc(F)cc3)c(N3CCCc4cc(C(=O)N5CCOCC5)ccc43)nc2c1` [Example 15, 2-(4-Fluorophenyl)-3-[6-[(morpholin-4-yl)carbonyl]-1,2,3,4-tetrahydroquinolin-1-yl]quinoxaline-6-carboxylic acid] the value was not above 10 µM; for `NC(=O)c1ccc2c(c1)CCCN2c1nc2cc(C(=O)O)ccc2nc1-c1ccc(F)cc1` [Example 14, 3-(6-Carbamoyl-1,2,3,4-tetrahydroquinolin-1-yl)-2-(4-fluorophenyl)quinoxaline-6-carboxylic acid], not above 10 µM; for `O=C(O)c1ccc2nc(-c3ccc(F)cc3)c(N3CCCc4cc5c(cc43)OCO5)nc2c1` [Example 24, 3-[2H,5H,6H,7H,8H-[1,3]Dioxolo[4,5-g]quinolin-5-yl]-2-(4-fluorophenyl)quinoxaline-6-carboxylic acid], not above 10 µM.
